Experimental data from the supplement of paper PMC4862054.
Values joined by “and” are separate entries in the source; they are usually repeats but may differ in a detail not shown here. Equal values may be shown once.

What was measured:
Details in all cases: incubation time: 72 h
HCC1599 [1] = assay: drug sensitivity score (DSS), CellTiter-Blue viability (DSS (AUC-based score)); higher = stronger viability inhibition; extreme values may be limits of the assay
Description: (§1)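 DSRT with the CellTiter-Blue (resazurin reduction) viability readout, fluorescence 560/590 nm, 72 h incubation. Plates were normalised to DMSO and benzethonium chloride controls. DSS is computed from the area under the fitted dose-response curve (5 or 9 concentrations).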

Hs578T [2] = assay: as above
Description: as §1

MDA-MB-468 [3] = assay: as above
Description: as §1

CAL-51 = assay: as above
Description: as §1

HCC1143 [4] = assay: as above
Description: as §1

BT-474 = assay: as above
Description: as §1

DU-4475 = assay: as above
Description: as §1

HDQ-P1 = assay: as above
Description: as §1

CAL-85-1 = assay: as above
Description: as §1

SK-BR-3 = assay: as above
Description: as §1

HCC1937 [5] = assay: as above
Description: as §1

CAL-120 = assay: as above
Description: as §1

CAL-148 = assay: as above
Description: as §1

BT-549 = assay: as above
Description: as §1

MDA-MB-453 [6] = assay: as above
Description: as §1

MFM-223 = assay: as above
Description: as §1

MDA-MB-436 [7] = assay: as above
Description: as §1

MDA-MB-231 [8] = assay: as above
Description: as §1

HCC1599 [9] = assay: normalised response (% of control), CellTox Green; higher = less cell death (100 = DMSO, 0 = benzethonium chloride kill control)
Summary of the method: (§2)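 Each value is the plate-normalised signal at one concentration of the series. Breast cancer cell lines (20 µl suspension) were incubated 72 h in 384-well plates with compound at 5 concentrations in 10-fold steps over a compound-specific 10,000-fold range. CellTox Green and then CellTiter-Glo were read, and each plate was scaled to 0.1 % DMSO (100) and a positive kill control (0).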

Hs578T [10] = assay: as above
Summary of the method: as §2

MDA-MB-468 [11] = assay: as above
Summary of the method: as §2

MCF-10A = assay: as above
Summary of the method: as §2

HCC1143 [12] = assay: as above
Summary of the method: as §2

HCC1937 [13] = assay: as above
Summary of the method: as §2

MDA-MB-453 [14] = assay: as above
Summary of the method: as §2

MDA-MB-436 [15] = assay: as above
Summary of the method: as §2

MDA-MB-231 [16] = assay: as above
Summary of the method: as §2

Compound	drug sensitivity score (HCC1599 [1])	drug sensitivity score (Hs578T [2])	drug sensitivity score (MDA-MB-468 [3])	drug sensitivity score (CAL-51)	drug sensitivity score (HCC1143 [4])	drug sensitivity score (BT-474)	drug sensitivity score (DU-4475)	drug sensitivity score (HDQ-P1)	drug sensitivity score (CAL-85-1)	drug sensitivity score (SK-BR-3)	drug sensitivity score (HCC1937 [5])	drug sensitivity score (CAL-120)	drug sensitivity score (CAL-148)	drug sensitivity score (BT-549)	drug sensitivity score (MDA-MB-453 [6])	drug sensitivity score (MFM-223)	drug sensitivity score (MDA-MB-436 [7])	drug sensitivity score (MDA-MB-231 [8])	normalised response (HCC1599 [9]) [%]	normalised response (Hs578T [10]) [%]	normalised response (MDA-MB-468 [11]) [%]	normalised response (MCF-10A) [%]	normalised response (HCC1143 [12]) [%]	normalised response (HCC1937 [13]) [%]	normalised response (MDA-MB-453 [14]) [%]	normalised response (MDA-MB-436 [15]) [%]	normalised response (MDA-MB-231 [16]) [%]
CC(=O)[C@]1(O)Cc2c(O)c3c(c(O)c2[C@@H](O[C@H]2C[C@H](N)[C@H](O)[C@H](C)O2)C1)C(=O)c1ccccc1C3=O [Idarubicin]	0.917	11.4	14.2	21	8.64	10.2	18.3	6.33	6.93	17.7	21.4	14.5	19.7	11.5	4.55	6	9.77	11.9	–	–	–	–	–	–	–	–	–
O=C(CCCCCCC(=O)Nc1ccccc1)NO [Vorinostat]	6.85 and 2.71	5.57 and 5.8	6.66 and 5.72	0.68 and 0.982	4.79 and 6.75	6.34 and 8.1	–	3.82 and 8.64	4.59 and 3.98	14.2 and 12.8	6.22 and 7.75	9.7 and 7.55	5.26 and 4.8	4.56 and 4.64	11.4 and 11.6	7.1 and 6.77	8.55 and 3.68	5.31 and 5.33	–	–	–	–	–	–	–	–	–
CC(C)(C)NC(=O)[C@H]1CC[C@H]2[C@@H]3CC[C@H]4NC(=O)C=C[C@]4(C)[C@H]3CC[C@]12C [Finasteride]	0	0	0	1.63	0	0	3.01	0	0	0	0	0	1.45	0	1.81	1.79	0	0	–	–	–	–	–	–	–	–	–
CC(C)C[C@H](NC(=O)[C@@H](COC(C)(C)C)NC(=O)[C@H](Cc1ccc(O)cc1)NC(=O)[C@H](CO)NC(=O)[C@H](Cc1c[nH]c2ccccc12)NC(=O)[C@H](Cc1cnc[nH]1)NC(=O)[C@@H]1CCC(=O)N1)C(=O)N[C@@H](CCCNC(=N)N)C(=O)N1CCC[C@H]1C(=O)NNC(N)=O [Goserelin]	0	0	0	0	0	0	0	0	0	0	0	0	0	0	0	0	0	0	–	–	–	–	–	–	–	–	–
CCNC(=O)c1noc(-c2cc(C(C)C)c(O)cc2O)c1-c1ccc(CN2CCOCC2)cc1 [NVP-AUY922]	9.96	18.8	19.4	18.6	9.99	15.2	21.7	18	16	22.8	26.1	21.3	18.1	19.6	20.8	20.9	20.7	17.3	–	–	–	–	–	–	–	–	–
CN(Cc1cnc2nc(N)nc(N)c2n1)c1ccc(C(=O)N[C@@H](CCC(=O)O)C(=O)O)cc1 [Methotrexate]	0	4.17	18.6	15.1	10.5	0	0	0	9.69	16.2	0	17.3	9.98	0	0	0	0	0	–	–	–	–	–	–	–	–	–
CC[C@H](CO)Nc1nc(NCc2ccccc2)c2ncn(C(C)C)c2n1 [Roscovitine]	2.39	2.74	0	0	5.44	0	0	0	0	0	0	0	0	2.4	0	0	0.894	0	–	–	–	–	–	–	–	–	–
COc1c2occc2cc2ccc(=O)oc12 [Methoxsalen]	0	0	0	0	0	0	0.558	0	0.682	0	0	0	1.28	0	1.68	0	0	0	–	–	–	–	–	–	–	–	–
CC(O)(CS(=O)(=O)c1ccc(F)cc1)C(=O)Nc1ccc(C#N)c(C(F)(F)F)c1 (stereo not drawn) [Bicalutamide]	0	0	4.86e-06	0	0	0	0	0	0	0	0	0	0	0	0	0	0	0	–	–	–	–	–	–	–	–	–
CCNC(=O)CCC/C=C\C[C@@H]1[C@@H](/C=C/[C@@H](O)CCc2ccccc2)[C@H](O)C[C@@H]1O [Bimatoprost]	0	0	0	0	0	0	0	0	0	0	0	0	0	0	0	0	0	0	–	–	–	–	–	–	–	–	–
Cn1cc(C2=C(c3cn(C4CCN(Cc5ccccn5)CC4)c4ccccc34)C(=O)NC2=O)c2ccccc21 [Enzastaurin]	0	9.93	0	0	5.14	2.68	0	1.6	0	10.1	5.39	0	5.06	6.55	7.69	6.5	9.96	0	–	–	–	–	–	–	–	–	–
Cc1cn(-c2cc(NC(=O)c3ccc(C)c(Nc4nccc(-c5cccnc5)n4)c3)cc(C(F)(F)F)c2)cn1 [Nilotinib]	0	0	0	0	0	0	0	0	0	0	6.24 and 6.45	0	0	6.16 and 6.02	0	0	0	4.55 and 5.18	–	–	–	–	–	–	–	–	–
CC1(C)CCC(c2ccc(Cl)cc2)=C(CN2CCN(c3ccc(C(=O)NS(=O)(=O)c4ccc(N[C@H](CCN5CCOCC5)CSc5ccccc5)c(S(=O)(=O)C(F)(F)F)c4)cc3)CC2)C1 [Navitoclax]	5.97	0	3.12	0	0	0	17.2	9.87	0	0	0	6.12	4.37	3.17	0	2.7	0	7.75	–	–	–	–	–	–	–	–	–
Cc1cn(-c2cc(NC(=O)c3ccc(C)c(Nc4nccc(-c5cccnc5)n4)c3)cc(C(F)(F)F)c2)cn1 [Nilotinib] (1000 nM)	–	–	–	–	–	–	–	–	–	–	–	–	–	–	–	–	–	–	101	104	111	107	91.8	131	106	82.2	68.5
Nc1ccn([C@@H]2O[C@H](CO)[C@@H](O)C2(F)F)c(=O)n1 [Gemcitabine] (100 nM)	–	–	–	–	–	–	–	–	–	–	–	–	–	–	–	–	–	–	87.5	103	28.4	94.5	111	89	110	58.6	101
O=C(CCCCCCC(=O)Nc1ccccc1)NO [Vorinostat] (1000 nM)	–	–	–	–	–	–	–	–	–	–	–	–	–	–	–	–	–	–	91.8	78.8	103	89.9	100	122	93.9	73.5	83.2
COc1ccc(S(=O)(=O)Nc2cccnc2Nc2ccc(O)cc2)cc1 [ABT-751] (10000 nM)	–	–	–	–	–	–	–	–	–	–	–	–	–	–	–	–	–	–	74.5	29.5	112	42.6	121	108	97	63.9	46.2
O=C(CCCCCCC(=O)Nc1ccccc1)NO [Vorinostat] (10000 nM)	–	–	–	–	–	–	–	–	–	–	–	–	–	–	–	–	–	–	81.9	60.6	25.7	98.4	42.1	84.3	82.7	77.5	-55.1
